What was measured:
Assay in all cases: relative viability (nuclei count vs DMSO), 5 days (fraction); higher = more cells survive
[1] = compound: C1=CC=C2C(=C1)N=C(S2)C(C#N)C3=NC(=NC=C3)NCCC4=CN=CC=C4 + Cc1nc(NC(=O)N2CCC[C@H]2C(N)=O)sc1-c1ccnc(C(C)(C)C(F)(F)F)c1 [Alpelisib] (partner 2 µM)
In short: (§1)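 Lung cancer cell lines in 1536-well plates were dosed by pin tool the day after seeding, either with one drug alone or with a fixed anchor-drug dose plus five library-drug doses (not always all listed) in √10 steps. After 5 days, cells were fixed and their nuclei stained in one step (final 0.05% Triton X-100, 1% formaldehyde, 1 ug/ml Hoechst), then counted on 4× images. Relative viability is the nuclei count in treated wells divided by that in vehicle wells. Values are medians of duplicate plates.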

CUDC-101 + Lapatinib = compound: C#Cc1cccc(Nc2ncnc3cc(OC)c(OCCCCCCC(=O)NO)cc23)c1 [CUDC-101] + CS(=O)(=O)CCNCc1ccc(-c2ccc3ncnc(Nc4ccc(OCc5cccc(F)c5)c(Cl)c4)c3c2)o1 [Lapatinib] (partner 2 µM)
In short: as §1

NVP-TAE684 + Decitabine = compound: COc1cc(N2CCC(N3CCN(C)CC3)CC2)ccc1Nc1ncc(Cl)c(Nc2ccccc2S(=O)(=O)C(C)C)n1 [NVP-TAE684] + Nc1ncn([C@H]2C[C@H](O)[C@@H](CO)O2)c(=O)n1 [Decitabine] (partner 2 µM)
In short: as §1

[2] = compound: C1=CC=C2C(=C1)N=C(S2)C(C#N)C3=NC(=NC=C3)NCCC4=CN=CC=C4 + Nc1ncn([C@H]2C[C@H](O)[C@@H](CO)O2)c(=O)n1 [Decitabine] (partner 2 µM)
In short: as §1

Cell Line | relative viability ([1]; first compound 0.005 µM) | relative viability ([1]; first compound 0.01581 µM) | relative viability ([1]; first compound 0.05 µM) | relative viability ([1]; first compound 0.1581 µM) | relative viability ([1]; first compound 0.5 µM) | relative viability (CUDC-101 + Lapatinib; first compound 0.01 µM) | relative viability (CUDC-101 + Lapatinib; first compound 0.03162 µM) | relative viability (CUDC-101 + Lapatinib; first compound 0.1 µM) | relative viability (CUDC-101 + Lapatinib; first compound 0.3162 µM) | relative viability (CUDC-101 + Lapatinib; first compound 1 µM) | relative viability (NVP-TAE684 + Decitabine; first compound 0.2 µM) | relative viability (NVP-TAE684 + Decitabine; first compound 0.6325 µM) | relative viability (NVP-TAE684 + Decitabine; first compound 2 µM) | relative viability ([2]; first compound 0.005 µM) | relative viability ([2]; first compound 0.01581 µM) | relative viability ([2]; first compound 0.05 µM) | relative viability ([2]; first compound 0.1581 µM) | relative viability ([2]; first compound 0.5 µM)
HCC-366 | 0.428 | 0.475 | 0.314 | 0.475 | 0.389 | 1.07 | 1.06 | 1.07 | 0.755 | 0.459 | 0.37 | 0.401 | 0.315 | 0.328 | 0.385 | 0.363 | 0.344 | 0.321
NCI-H661 | 0.632 | 0.482 | 0.61 | 0.841 | 0.798 | 0.603 | 0.449 | 0.525 | 0.594 | 0.506 | 0.584 | 0.495 | 0.508 | 0.467 | 0.52 | 0.529 | 0.622 | 0.589
HCC-78 | 0.366 | 0.316 | 0.353 | 0.366 | 0.378 | 0.882 | 0.92 | 0.808 | 0.701 | 0.631 | 0.636 | 0.634 | 0.49 | 0.776 | 0.779 | 0.634 | 0.825 | 0.747
HCC-44 | 0.716 | 0.835 | 0.737 | 0.915 | 0.638 | 0.923 | 1.07 | 0.947 | 0.979 | 0.812 | 0.946 | 0.955 | 0.876 | 0.956 | 0.933 | 0.971 | 0.978 | 1.01
NCI-H1355 | 0.852 | 0.901 | 0.823 | 0.883 | 0.633 | 1.04 | 0.825 | 1.05 | 0.895 | 0.679 | 0.372 | 0.383 | 0.31 | 0.367 | 0.376 | 0.381 | 0.358 | 0.366
NCI-H1993 | 0.671 | 0.692 | 0.645 | 0.652 | 0.747 | 0.758 | 0.899 | 1.03 | 0.995 | 0.635 | 0.618 | 0.629 | 0.501 | 0.663 | 0.641 | 0.607 | 0.699 | 0.59
NCI-H1734 | 0.695 | 0.729 | 0.518 | 0.726 | 0.714 | 1.1 | 0.988 | 1.07 | 1.09 | 0.841 | 0.466 | 0.347 | 0.432 | 0.453 | 0.49 | 0.522 | 0.495 | 0.488
SK-MES-1 | 1.17 | 0.979 | 1.12 | 1.14 | 0.859 | 0.466 | 0.462 | 0.451 | 0.461 | 0.388 | 0.41 | 0.335 | 0.305 | 0.48 | 0.405 | 0.372 | 0.409 | 0.41
COR-L 105 | 1.06 | 1.22 | 0.856 | 0.955 | 0.678 | 0.425 | 0.356 | 0.316 | 0.264 | 0.226 | 0.681 | 0.701 | 0.429 | 0.597 | 0.628 | 0.638 | 0.637 | 0.642

Reference: the supplement of paper PMC10307832
